Columns and labels:
Human GLP-1 receptors = Human GLP-1 receptors (Homo sapiens, UniProt P43220); assay: GLP-1 receptor activation assay (CRE-luciferase reporter, CHO-K1)
Human glucagon receptors = Human glucagon receptors (Homo sapiens, UniProt P47871); assay: Glucagon receptor activation assay (CRE-luciferase reporter, CHO-K1)
Chain of Human glucagon receptors (P47871 26-477): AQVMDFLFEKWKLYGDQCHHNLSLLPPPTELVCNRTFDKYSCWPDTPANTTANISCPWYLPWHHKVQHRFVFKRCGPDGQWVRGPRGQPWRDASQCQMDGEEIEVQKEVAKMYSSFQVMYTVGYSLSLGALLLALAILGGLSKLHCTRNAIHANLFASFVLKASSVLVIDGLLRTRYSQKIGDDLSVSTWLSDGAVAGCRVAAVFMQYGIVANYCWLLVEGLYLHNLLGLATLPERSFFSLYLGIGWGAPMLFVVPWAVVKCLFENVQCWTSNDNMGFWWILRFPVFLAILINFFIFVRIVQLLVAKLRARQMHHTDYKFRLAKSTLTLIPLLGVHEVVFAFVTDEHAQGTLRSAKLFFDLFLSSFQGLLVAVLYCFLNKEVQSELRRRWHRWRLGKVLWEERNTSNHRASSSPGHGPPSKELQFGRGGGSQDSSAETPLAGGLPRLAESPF
Protocol: Then, the resulting increased luciferase activity was evaluated as a measurement of the effect on each receptor activation.
After 3 hours of transfection, medium was exchanged to Alpha Minimal Essential Medium (α-MEM) comprising 10% fetal bovine serum (FBS). Next day, the medium was exchanged to α-MEM comprising the analog of the present invention and 0.1% bovine serum albumin (BSA). After 6 hours, dual luciferase assay reagent was added in the same amount as the medium in which the cells were submerged, and firefly luciferase and Renilla luciferase activities were continuously measured. Firefly luciferase activity values were corrected against Renilla luciferase activity to yield transfection efficiency.

Chain of Human GLP-1 receptors (P43220 24-463): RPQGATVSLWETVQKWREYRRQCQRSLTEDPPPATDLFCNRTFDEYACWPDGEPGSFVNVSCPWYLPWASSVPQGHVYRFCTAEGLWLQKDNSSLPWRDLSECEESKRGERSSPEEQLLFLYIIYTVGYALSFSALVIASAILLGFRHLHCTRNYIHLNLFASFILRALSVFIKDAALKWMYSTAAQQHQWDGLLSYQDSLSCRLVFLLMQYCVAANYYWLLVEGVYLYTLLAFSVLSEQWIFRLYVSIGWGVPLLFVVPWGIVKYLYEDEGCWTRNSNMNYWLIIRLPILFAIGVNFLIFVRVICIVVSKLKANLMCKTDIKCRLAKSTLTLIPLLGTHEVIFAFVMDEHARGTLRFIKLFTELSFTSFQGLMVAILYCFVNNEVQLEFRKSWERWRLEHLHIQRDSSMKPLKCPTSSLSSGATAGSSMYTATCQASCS

Row | Structure (SMILES) | EC50 (Human GLP-1 receptors) [nM] | EC50 (Human glucagon receptors) [nM]
1 | CCCCCCCCCCCCCCCCCC(=O)N[C@@H](CCC(=O)NCCOCCOCC(=O)NCCOCCOCC(=O)NCCOCCOCC(=O)NCCOCCOCC(=O)NCCCC[C@H](NC(=O)[C@H](CC(=O)O)NC(=O)[C@H](CO)NC(=O)[C@@H](NC(=O)[C@H](Cc1ccccc1)NC(=O)[C@@H](NC(=O)CNC(=O)[C@H](CCC(N)=O)NC(=O)C(C)(C)NC(=O)[C@@H](N)Cc1c[nH]cn1)[C@@H](C)O)[C@@H](C)O)C(=O)N[C@@H](CO)C(=O)N[C@@H](CCCCN)C(=O)N[C@@H](Cc1ccc(O)cc1)C(=O)N[C@@H](CC(C)C)C(=O)N[C@@H](CC(=O)O)C(=O)N[C@H]1CCC(=O)NCCCC[C@@H](C(=O)N[C@@H](CC(=O)O)C(=O)N[C@@H](Cc2ccccc2)C(=O)N[C@H](C(=O)N[C@@H](CCC(N)=O)C(=O)N[C@@H](Cc2c[nH]c3ccccc23)C(=O)N[C@@H](CC(C)C)C(=O)N[C@@H](CCSC)C(=O)N[C@@H](CC(N)=O)C(=O)N[C@H](C(=O)N[C@@H](CCCCN)C(N)=O)[C@@H](C)O)C(C)C)NC(=O)[C@H](C)NC(=O)[C@H](CCCNC(=N)N)NC(=O)[C@H](CCCNC(=N)N)NC1=O)C(=O)O [Compound 24, H-HAibQGTFTSDZSKYLDERRAKDFVQWLMNTK-NH2] | < 0.01 | 0.01 to 0.1
2 | CCCCCCCCCCCCCCCCCC(=O)N[C@@H](CCC(=O)NCCOCCOCC(=O)NCCOCCOCC(=O)NCCOCCOCC(=O)NCCOCCOCC(=O)NCCCC[C@H](NC(=O)[C@H](CC(=O)O)NC(=O)[C@H](CO)NC(=O)[C@@H](NC(=O)[C@H](Cc1ccccc1)NC(=O)[C@@H](NC(=O)CNC(=O)[C@H](CCC(N)=O)NC(=O)C(C)(C)NC(=O)[C@@H](N)Cc1c[nH]cn1)[C@@H](C)O)[C@@H](C)O)C(=O)N[C@@H](CO)C(=O)N[C@@H](CCCCN)C(=O)N[C@@H](Cc1ccc(O)cc1)C(=O)N[C@@H](CC(C)C)C(=O)N[C@@H](CC(=O)O)C(=O)N[C@H]1CCC(=O)NCCCC[C@@H](C(=O)N[C@@H](CC(=O)O)C(=O)N[C@@H](Cc2ccccc2)C(=O)N[C@H](C(=O)N[C@@H](CCC(N)=O)C(=O)N[C@@H](Cc2c[nH]c3ccccc23)C(=O)N[C@@H](CC(C)C)C(=O)N[C@@H](CCSC)C(=O)N[C@@H](CC(N)=O)C(=O)N[C@H](C(=O)N[C@@H](CCCCN)C(=O)O)[C@@H](C)O)C(C)C)NC(=O)[C@H](C)NC(=O)[C@H](CCCNC(=N)N)NC(=O)[C@H](CCCNC(=N)N)NC1=O)C(=O)O [Compound 25, H-HAibQGTFTSDZSKYLDERRAKDFVQWLMNTK-OH] | < 0.01 | < 0.01
3 | CCCCCCCCCCCCCCCCCC(=O)N[C@@H](CCC(=O)NCCOCCOCC(=O)NCCOCCOCC(=O)NCCCC[C@H](NC(=O)[C@H](CC(=O)O)NC(=O)[C@H](CO)NC(=O)[C@@H](NC(=O)[C@H](Cc1ccccc1)NC(=O)[C@@H](NC(=O)CNC(=O)[C@H](CCC(N)=O)NC(=O)C(C)(C)NC(=O)[C@@H](N)Cc1c[nH]cn1)[C@@H](C)O)[C@@H](C)O)C(=O)N[C@@H](CO)C(=O)N[C@@H](CCCCN)C(=O)N[C@@H](Cc1ccc(O)cc1)C(=O)N[C@@H](CC(C)C)C(=O)N[C@@H](CC(=O)O)C(=O)N[C@H]1CC(=O)NCCCC[C@@H](C(=O)N[C@@H](CC(=O)O)C(=O)N[C@@H](Cc2ccccc2)C(=O)N[C@H](C(=O)N[C@@H](CCC(N)=O)C(=O)N[C@@H](Cc2c[nH]c3ccccc23)C(=O)N[C@@H](CC(C)C)C(=O)N[C@@H](CCSC)C(=O)N[C@@H](CC(N)=O)C(=O)N[C@H](C(=O)N[C@@H](CCCCN)C(=O)O)[C@@H](C)O)C(C)C)NC(=O)[C@H](C)NC(=O)[C@H](CCCNC(=N)N)NC(=O)[C@H](CCCNC(=N)N)NC1=O)C(=O)O [Compound 26, H-HAibQGTFTSDZSKYLDDRRAKDFVQWLMNTK-OH] | < 0.01 | < 0.01
4 | CCCCCCCCCCCCCCCCCC(=O)N[C@@H](CCC(=O)NCCOCCOCC(=O)NCCOCCOCC(=O)NCCCC[C@H](NC(=O)[C@H](CC(=O)O)NC(=O)[C@H](CO)NC(=O)[C@@H](NC(=O)[C@H](Cc1ccccc1)NC(=O)[C@@H](NC(=O)CNC(=O)[C@H](CCC(N)=O)NC(=O)C(C)(C)NC(=O)[C@@H](N)Cc1c[nH]cn1)[C@@H](C)O)[C@@H](C)O)C(=O)N[C@@H](CO)C(=O)N[C@@H](CCCCN)C(=O)N[C@@H](Cc1ccc(O)cc1)C(=O)N[C@@H](CC(C)C)C(=O)N[C@@H](CC(=O)O)C(=O)N[C@H]1CCCCNC(=O)C[C@@H](C(=O)N[C@@H](CC(=O)O)C(=O)N[C@@H](Cc2ccccc2)C(=O)N[C@H](C(=O)N[C@@H](CCC(N)=O)C(=O)N[C@@H](Cc2c[nH]c3ccccc23)C(=O)N[C@@H](CC(C)C)C(=O)N[C@@H](CCSC)C(=O)N[C@@H](CC(N)=O)C(=O)N[C@H](C(=O)N[C@@H](CCCCN)C(=O)O)[C@@H](C)O)C(C)C)NC(=O)[C@H](C)NC(=O)[C@H](CCCNC(=N)N)NC(=O)[C@H](CCCNC(=N)N)NC1=O)C(=O)O [Compound 27, H-HAibQGTFTSDZSKYLDKRRADDFVQWLMNTK-OH] | < 0.01 | < 0.01
5 | CCCCCCCCCCCCCCCCCC(=O)N[C@@H](CCC(=O)NCCOCCOCC(=O)NCCOCCOCC(=O)NCCCC[C@H](NC(=O)[C@H](CC(=O)O)NC(=O)[C@H](CO)NC(=O)[C@@H](NC(=O)[C@H](Cc1ccccc1)NC(=O)[C@@H](NC(=O)CNC(=O)[C@H](CCC(N)=O)NC(=O)C(C)(C)NC(=O)[C@@H](N)Cc1c[nH]cn1)[C@@H](C)O)[C@@H](C)O)C(=O)N[C@@H](CO)C(=O)N[C@@H](CCCCN)C(=O)N[C@@H](Cc1ccc(O)cc1)C(=O)N[C@@H](CC(C)C)C(=O)N[C@@H](CC(=O)O)C(=O)N[C@H]1CSSC[C@@H](C(=O)N[C@@H](CC(=O)O)C(=O)N[C@@H](Cc2ccccc2)C(=O)N[C@H](C(=O)N[C@@H](CCC(N)=O)C(=O)N[C@@H](Cc2c[nH]c3ccccc23)C(=O)N[C@@H](CC(C)C)C(=O)N[C@@H](CCSC)C(=O)N[C@@H](CC(N)=O)C(=O)N[C@H](C(=O)N[C@@H](CCCCN)C(=O)O)[C@@H](C)O)C(C)C)NC(=O)[C@H](C)NC(=O)[C@H](CCCNC(=N)N)NC(=O)[C@H](CCCNC(=N)N)NC1=O)C(=O)O [Compound 28, H-HAibQGTFTSDZSKYLDCRRACDFVQWLMNTK-OH] | 0.1 to 1 | 0.1 to 1

Other lines, results leading:

Row | EC50 (Human GLP-1 receptors) [nM] | EC50 (Human glucagon receptors) [nM] | Structure (SMILES)
6 | < 0.01 | < 0.01 | CCCCCCCCCCCCCCCCCC(=O)N[C@@H](CCC(=O)NCCOCCOCC(=O)NCCOCCOCC(=O)NCCCC[C@H](NC(=O)[C@H](CC(=O)O)NC(=O)[C@H](CO)NC(=O)[C@@H](NC(=O)[C@H](Cc1ccccc1)NC(=O)[C@@H](NC(=O)CNC(=O)[C@H](CCC(N)=O)NC(=O)C(C)(C)NC(=O)[C@@H](N)Cc1c[nH]cn1)[C@@H](C)O)[C@@H](C)O)C(=O)N[C@@H](CO)C(=O)N[C@@H](CCCCN)C(=O)N[C@@H](Cc1ccc(O)cc1)C(=O)N[C@@H](CC(C)C)C(=O)N[C@@H](CC(=O)O)C(=O)N[C@H]1CCC(=O)NCCNC(=O)CC[C@@H](C(=O)N[C@@H](CC(=O)O)C(=O)N[C@@H](Cc2ccccc2)C(=O)N[C@H](C(=O)N[C@@H](CCC(N)=O)C(=O)N[C@@H](Cc2c[nH]c3ccccc23)C(=O)N[C@@H](CC(C)C)C(=O)N[C@@H](CCSC)C(=O)N[C@@H](CC(N)=O)C(=O)N[C@H](C(=O)N[C@@H](CCCCN)C(=O)O)[C@@H](C)O)C(C)C)NC(=O)[C@H](C)NC(=O)[C@H](CCCNC(=N)N)NC(=O)[C@H](CCCNC(=N)N)NC1=O)C(=O)O [Compound 30, H-HAibQGTFTSDZSKYLDERRAEDFVQWLMNTK-OH]
7 | < 0.01 | < 0.01 | CCCCCCCCCCCCCCCCCC(=O)N[C@@H](CCC(=O)NCCOCCOCC(=O)NCCOCCOCC(=O)NCCCC[C@H](NC(=O)[C@H](CC(=O)O)NC(=O)[C@H](CO)NC(=O)[C@@H](NC(=O)[C@H](Cc1ccccc1)NC(=O)[C@@H](NC(=O)CNC(=O)[C@H](CCC(N)=O)NC(=O)C(C)(C)NC(=O)[C@@H](N)Cc1c[nH]cn1)[C@@H](C)O)[C@@H](C)O)C(=O)N[C@@H](CO)C(=O)N[C@@H](CCCCN)C(=O)N[C@@H](Cc1ccc(O)cc1)C(=O)N[C@@H](CC(C)C)C(=O)N[C@@H](CC(=O)O)C(=O)N[C@H]1CCCCNC(=O)c2ccc(cc2)C(=O)NCCCC[C@@H](C(=O)N[C@@H](CC(=O)O)C(=O)N[C@@H](Cc2ccccc2)C(=O)N[C@H](C(=O)N[C@@H](CCC(N)=O)C(=O)N[C@@H](Cc2c[nH]c3ccccc23)C(=O)N[C@@H](CC(C)C)C(=O)N[C@@H](CCSC)C(=O)N[C@@H](CC(N)=O)C(=O)N[C@H](C(=O)N[C@@H](CCCCN)C(=O)O)[C@@H](C)O)C(C)C)NC(=O)[C@H](C)NC(=O)[C@H](CCCNC(=N)N)NC(=O)[C@H](CCCNC(=N)N)NC1=O)C(=O)O [Compound 31, H-HAibQGTFTSDZSKYLDKRRAKDFVQWLMNTK-OH]
8 | < 0.01 | < 0.01 | CCCCCCCCCCCCCCCCCC(=O)N[C@@H](CCC(=O)NCCOCCOCC(=O)NCCOCCOCC(=O)NCCCC[C@H](NC(=O)[C@H](CC(=O)O)NC(=O)[C@H](CO)NC(=O)[C@@H](NC(=O)[C@H](Cc1ccccc1)NC(=O)[C@@H](NC(=O)CNC(=O)[C@H](CCC(N)=O)NC(=O)C(C)(C)NC(=O)[C@@H](N)Cc1c[nH]cn1)[C@@H](C)O)[C@@H](C)O)C(=O)N[C@@H](CO)C(=O)N[C@@H](CCCCN)C(=O)N[C@@H](Cc1ccc(O)cc1)C(=O)N[C@@H](CC(C)C)C(=O)N[C@@H](CC(=O)O)C(=O)N[C@H]1CCCCNC(=O)C2CCN(CC2)C(=O)CC[C@@H](C(=O)N[C@@H](CC(=O)O)C(=O)N[C@@H](Cc2ccccc2)C(=O)N[C@H](C(=O)N[C@@H](CCC(N)=O)C(=O)N[C@@H](Cc2c[nH]c3ccccc23)C(=O)N[C@@H](CC(C)C)C(=O)N[C@@H](CCSC)C(=O)N[C@@H](CC(N)=O)C(=O)N[C@H](C(=O)N[C@@H](CCCCN)C(=O)O)[C@@H](C)O)C(C)C)NC(=O)[C@H](C)NC(=O)[C@H](CCCNC(=N)N)NC(=O)[C@H](CCCNC(=N)N)NC1=O)C(=O)O [Compound 32, H-HA1 bQGTFTSDZSKYLDKRRAEDFVQWLMNTK-OH]

From patent publication US11713344B2 (DONG-A ST CO., LTD., priority 2017, dated 2023)
